The term mortality denotes the percentage killed. Read a low mortality as more survivors. A word on the LD50: it is the dose expected to kill half of the subjects tested.

Mortality and LD50 data for 20 compounds are collected here from patent US4444786A, “Carbamate derivatives, insecticidal, miticidal or nematocidal compositions containing the same, and process for preparing the same” (priority 1981, dated 1984).

Series [1] has as its system green rice leafhopper (Nephotettix cincticeps). Put plainly: Test Example 2: mortality of female adults of green rice leafhopper on paddy rice, three days. The format is in vivo. The note with it: 72 h, 3 days; for mortality at 200 ppm: 200 ppm active ingredient; for mortality at 400 ppm: 400 ppm active ingredient; for mortality at 800 ppm: 800 ppm active ingredient. As to the method: An emulsion of specified concentration was prepared from a 50% wettable powder of the compound to be tested and applied to the leaves of paddy rice (one-month-old seedlings) planted in a pot to fully wet the leaves. After air-drying the emulsion, the pot was covered with a net cage, into which 10 female adults of green rice leafhopper (Nephotettix cincticeps) were released. The compound of each specified concentration was tested on two pots.

The subject of series [2] is house fly (Musca domestica). Put plainly: Test Example 4: local application to house fly, LD50 by Probit method. As to conditions: topical, 24 hours. It counts as in vivo. As to the method:
The compound to be tested was dissolved in a predetermined amount of acetone. The solution was diluted to various concentrations and locally applied to house fly (Musca domestica).

In series [3] the test system is tobacco cutworm (Spodoptera litura). Put plainly: Test Example 1: mortality of third-instar larvae of tobacco cutworm on cabbage, three days. The note with it: 72 h, 3 days; for mortality at 100 ppm: 100 ppm active ingredient; for mortality at 200 ppm: 200 ppm active ingredient; for mortality at 400 ppm: 400 ppm active ingredient. The format is in vivo. As to the method:
Ten third-instar larvae of tobacco cutworm (Spodoptera litura) were placed on a cabbage (one-month-old seedlings) planted in a pot, and a 50% emulsion of the compound to be tested was diluted to a specified concentration and applied to the leaves of the plant to fully wet them. The test compound of each specified concentration was tested on two pots.

A short description of series [4]: Test Example 5: acute toxicity by oral administration against male mice. The note with it: mouse, in vivo, seventh day, Litchfield-Wilcoxon method. As to the method: The compound to be tested was evaluated in terms of acute toxicity by oral administration against male mice.

Turning to `CCOC(=O)CCN(SN(C)C(=O)ON=C(C)SC)c1cccc(C)c1` [Example 10], in series [1], the mortality at 200 ppm is 90%, the mortality at 400 ppm turned out to be 100% and the mortality at 800 ppm was determined as 100%. Besides, the 50% lethal dose (LD50) in series [2] was 29.5 mg/kg. For the same compound, in series [3], the mortality at 100 ppm turned out to be 60%, the mortality at 200 ppm was 85% and the mortality at 400 ppm stood at 100%. This compound showed an LD50 at 168 h in series [4] of 250 mg/kg.
In series [1], `CCCCCCCCN(CCC(=O)OCC)SN(C)C(=O)ON=C(C)SC` [Example 18] showed a mortality at 200 ppm of 75%, a mortality at 400 ppm of 90% and a mortality at 800 ppm of 100%. In series [2], this compound returned an LD50 of 35.6 mg/kg. In series [3], this compound showed a mortality at 100 ppm of 60%, a mortality at 200 ppm of 75% and a mortality at 400 ppm of 100%. The LD50 at 168 h in series [4] is 270 mg/kg.
In series [1], `CCCCC(CC)COC(=O)CCN(SN(C)C(=O)ON=C(C)SC)C(C)C` (stereo not shown) [Example 17] yielded a mortality at 200 ppm of 75%, a mortality at 400 ppm of 90% and a mortality at 800 ppm of 100%. This compound returned an LD50 in series [2] of 42.4 mg/kg. In series [3], this compound gave a mortality at 100 ppm of 50%, a mortality at 200 ppm of 70% and a mortality at 400 ppm of 100%. The compound also yielded an LD50 at 168 h in series [4] of 300 mg/kg.
Turning to `CCCCOC(=O)CCN(SN(C)C(=O)ON=C(C)SC)C(C)C` [Example 15], in series [1], the mortality at 200 ppm is 80%, the mortality at 400 ppm worked out at 100% and the mortality at 800 ppm stood at 100%. Besides, the LD50 in series [2] came out at 21.3 mg/kg. In series [3], the mortality at 100 ppm came to 75%, the mortality at 200 ppm is 95% and the mortality at 400 ppm came out at 100%. The compound also registered a median lethal dose (LD50) at 168 h in series [4] of 280 mg/kg.
In series [1], `CCCCN(CC(=O)OCC)SN(C)C(=O)ON=C(C)SC` [Example 3] yielded a mortality at 200 ppm of 80%, a mortality at 400 ppm of 100% and a mortality at 800 ppm of 100%. Besides, the LD50 in series [2] was determined as 8.5 mg/kg. Besides, in series [3], the mortality at 100 ppm was 100%, the mortality at 200 ppm amounted to 100% and the mortality at 400 ppm was found to be 100%. Further, in series [4], the median lethal dose (LD50) at 168 h was determined as 170 mg/kg.
Regarding `CCOC(=O)CN(CC(=O)OCC)SN(C)C(=O)ON=C(C)SC` [Example 11], in series [1], the mortality at 200 ppm is 60%, the mortality at 400 ppm is 80% and the mortality at 800 ppm is 100%. Besides, the LD50 in series [2] is 47.3 mg/kg. For the same compound, in series [3], the mortality at 100 ppm was found to be 45%, the mortality at 200 ppm amounted to 75% and the mortality at 400 ppm was found to be 100%. The same compound showed an LD50 at 168 h in series [4] of 300 mg/kg.
As to `CCOC(=O)CCN(SN(C)C(=O)ON=C(C)SC)c1ccc(Cl)cc1` [Example 9], in series [1], the mortality at 200 ppm was 70%, the mortality at 400 ppm was found to be 100% and the mortality at 800 ppm worked out at 100%. For the same compound, in series [2], the LD50 worked out at 14 mg/kg. In series [3], this compound came in with a mortality at 100 ppm of 50%, a mortality at 200 ppm of 70% and a mortality at 400 ppm of 100%. This compound registered an LD50 at 168 h in series [4] of 250 mg/kg.
Regarding `CCOC(=O)CCN(SN(C)C(=O)ON=C(C)SC)C1CCCCC1` [Example 7], in series [1], the mortality at 200 ppm came out at 65%, the mortality at 400 ppm turned out to be 100% and the mortality at 800 ppm came to 100%. The same compound had an LD50 in series [2] of 18.3 mg/kg. In series [3], this compound gave a mortality at 100 ppm of 95%, a mortality at 200 ppm of 100% and a mortality at 400 ppm of 100%. The same compound registered an LD50 at 168 h in series [4] of 200 mg/kg.
In series [1], `CCCCN(CCC(=O)OC)SN(C)C(=O)ON=C(C)SC` [Example 5] came in with a mortality at 200 ppm of 95%, a mortality at 400 ppm of 100% and a mortality at 800 ppm of 100%. Further, the LD50 in series [2] is 5 mg/kg. In series [3], this compound gave a mortality at 100 ppm of 100%, a mortality at 200 ppm of 100% and a mortality at 400 ppm of 100%. In addition, the LD50 at 168 h in series [4] was 150 mg/kg.
`CCOC(=O)CN(SN(C)C(=O)ON=C(C)SC)C(=O)OCC` [Example 12]: in series [1], the mortality at 200 ppm amounted to 80%, the mortality at 400 ppm amounted to 100% and the mortality at 800 ppm was 100%. Further, the LD50 in series [2] turned out to be 28.7 mg/kg. Further, in series [3], the mortality at 100 ppm was 100%, the mortality at 200 ppm turned out to be 100% and the mortality at 400 ppm worked out at 100%. In series [4], this compound registered an LD50 at 168 h of 200 mg/kg.
For `CCOC(=O)CN(SN(C)C(=O)ON=C(C)SC)C(=O)CC` [Example 13], in series [1], the mortality at 200 ppm was 75%, the mortality at 400 ppm amounted to 100% and the mortality at 800 ppm was found to be 100%. The LD50 in series [2] was 14.4 mg/kg. Besides, in series [3], the mortality at 100 ppm stood at 75%, the mortality at 200 ppm was determined as 90% and the mortality at 400 ppm was 100%. The compound further returned an LD50 at 168 h in series [4] of 200 mg/kg.
For the compound `CCCN(CCC(=O)OCC)SN(C)C(=O)ON=C(C)SC` [Example 4], in series [1], the mortality at 200 ppm turned out to be 95%, the mortality at 400 ppm was 100% and the mortality at 800 ppm was found to be 100%. The LD50 in series [2] was determined as 11 mg/kg. For the same compound, in series [3], the mortality at 100 ppm worked out at 100%, the mortality at 200 ppm was 100% and the mortality at 400 ppm came to 100%. In series [4], this compound yielded an LD50 at 168 h of 150 mg/kg.
As for `CCOC(=O)CCN(Cc1ccc(Cl)cc1)SN(C)C(=O)ON=C(C)SC` [Example 20], in series [1], the mortality at 200 ppm turned out to be 80%, the mortality at 400 ppm is 100% and the mortality at 800 ppm is 100%. The compound also came in with an LD50 in series [2] of 18.9 mg/kg. Besides, in series [3], the mortality at 100 ppm is 75%, the mortality at 200 ppm was 80% and the mortality at 400 ppm was found to be 100%. Moreover, the LD50 at 168 h in series [4] was found to be 250 mg/kg.
In series [1], `CCOC(=O)CCN(Cc1ccccc1)SN(C)C(=O)ON=C(C)SC` [Example 8] registered a mortality at 200 ppm of 75%, a mortality at 400 ppm of 100% and a mortality at 800 ppm of 100%. In series [2], the LD50 stood at 35.2 mg/kg. In series [3], this compound returned a mortality at 100 ppm of 100%, a mortality at 200 ppm of 100% and a mortality at 400 ppm of 100%. This compound showed an LD50 at 168 h in series [4] of 250 mg/kg.
In series [1], `CCOC(=O)CN(SN(C)C(=O)ON=C(C)SC)S(=O)(=O)c1ccc(C)cc1` [Example 14] had a mortality at 200 ppm of 80%, a mortality at 400 ppm of 100% and a mortality at 800 ppm of 100%. The compound also came in with an LD50 in series [2] of 33.3 mg/kg. In series [3], this compound registered a mortality at 100 ppm of 60%, a mortality at 200 ppm of 80% and a mortality at 400 ppm of 100%. The compound further yielded an LD50 at 168 h in series [4] of 250 mg/kg.
In series [1], `CCOC(=O)CCN(SN(C)C(=O)ON=C(C)SC)c1ccc(OC)cc1` [Example 19] gave a mortality at 200 ppm of 80%, a mortality at 400 ppm of 100% and a mortality at 800 ppm of 100%. This compound yielded an LD50 in series [2] of 20.1 mg/kg. Besides, in series [3], the mortality at 100 ppm came to 75%, the mortality at 200 ppm came out at 80% and the mortality at 400 ppm worked out at 100%. This compound showed an LD50 at 168 h in series [4] of 250 mg/kg.
In series [1], `CCOC(=O)CCN(CCC(=O)OCC)SN(C)C(=O)ON=C(C)SC` [Example 2, S-methyl N-[{N-methyl-N-(N,N-bis(ethoxycarbonylethyl)aminosulfenyl)carbamoyl}oxy]thioacetamidate] displayed a mortality at 200 ppm of 60%, a mortality at 400 ppm of 95% and a mortality at 800 ppm of 100%. Further, the LD50 in series [2] was 23 mg/kg. In series [3], this compound displayed a mortality at 100 ppm of 75%, a mortality at 200 ppm of 100% and a mortality at 400 ppm of 100%. In addition, the LD50 at 168 h in series [4] amounted to 300 mg/kg.
As to `CCOC(=O)CCN(SN(C)C(=O)ON=C(C)SC)C(C)C` [Example 1, S-methyl N-[{N-methyl-N-(N-isopropyl-N-ethoxycarbonylethylaminosulfenyl)carbamoyl}oxy]thioacetamidate], in series [1], the mortality at 200 ppm stood at 60%, the mortality at 400 ppm was determined as 80% and the mortality at 800 ppm was determined as 100%. In addition, the LD50 in series [2] came to 16 mg/kg. In series [3], this compound gave a mortality at 100 ppm of 85%, a mortality at 200 ppm of 90% and a mortality at 400 ppm of 100%. The median lethal dose (LD50) at 168 h in series [4] was 150 mg/kg.
In series [1], `CCOC(=O)CCN(CC(C)C)SN(C)C(=O)ON=C(C)SC` [Example 6] came in with a mortality at 200 ppm of 80%, a mortality at 400 ppm of 90% and a mortality at 800 ppm of 100%. For the same compound, in series [2], the 50% lethal dose (LD50) was 7.6 mg/kg. In series [3], this compound displayed a mortality at 100 ppm of 70%, a mortality at 200 ppm of 95% and a mortality at 400 ppm of 100%. This compound had an LD50 at 168 h in series [4] of 170 mg/kg.
On to `CCCCCCN(CCC(=O)OCC)SN(C)C(=O)ON=C(C)SC` [Example 16], for which, in series [1], the mortality at 200 ppm is 75%, the mortality at 400 ppm was found to be 100% and the mortality at 800 ppm is 100%. In series [2], the LD50 came to 32.5 mg/kg. In addition, in series [3], the mortality at 100 ppm came out at 70%, the mortality at 200 ppm is 80% and the mortality at 400 ppm worked out at 100%. The LD50 at 168 h in series [4] was 300 mg/kg.
